# The source made the active and inactive calls. No rule for the calls is given here.
# Test system: CCRIS mutagenicity, Ames/micronucleus/aberration tests
# Test: CCRIS mutagenicity studies
# [1] = Test System: AMES SALMONELLA TYPHIMURIUM, Strain/Indicator: TA97, Metabolic Activation: HAMSTER, LIVER, S-9, AROCLOR 1254 (10 OR 30%), Method: PREINCUBATION
# [2] = Test System: AMES SALMONELLA TYPHIMURIUM, Strain/Indicator: TA97, Metabolic Activation: NONE, Method: PREINCUBATION
# [3] = Test System: AMES SALMONELLA TYPHIMURIUM, Strain/Indicator: TA97, Metabolic Activation: RAT, LIVER, S-9, AROCLOR 1254 (10 OR 30%), Method: PREINCUBATION
# [4] = Test System: AMES SALMONELLA TYPHIMURIUM, Strain/Indicator: TA98, Metabolic Activation: HAMSTER, LIVER, S-9, AROCLOR 1254 (10 OR 30%), Method: PREINCUBATION
# [5] = Test System: AMES SALMONELLA TYPHIMURIUM, Strain/Indicator: TA98, Metabolic Activation: NONE, Method: PREINCUBATION
# [6] = Test System: AMES SALMONELLA TYPHIMURIUM, Strain/Indicator: TA98, Metabolic Activation: RAT, LIVER, S-9, AROCLOR 1254 (10 OR 30%), Method: PREINCUBATION
# [7] = Test System: AMES SALMONELLA TYPHIMURIUM, Strain/Indicator: TA100, Metabolic Activation: HAMSTER, LIVER, S-9, AROCLOR 1254 (10 OR 30%), Method: PREINCUBATION
# [8] = Test System: AMES SALMONELLA TYPHIMURIUM, Strain/Indicator: TA100, Metabolic Activation: NONE, Method: PREINCUBATION
# [9] = Test System: AMES SALMONELLA TYPHIMURIUM, Strain/Indicator: TA100, Metabolic Activation: RAT, LIVER, S-9, AROCLOR 1254 (10 OR 30%), Method: PREINCUBATION
# [10] = Test System: AMES SALMONELLA TYPHIMURIUM, Strain/Indicator: TA1535, Metabolic Activation: NONE, Method: PREINCUBATION
# [11] = Test System: AMES SALMONELLA TYPHIMURIUM, Strain/Indicator: TA1535, Metabolic Activation: RAT, LIVER, S-9, AROCLOR 1254 (10 OR 30%), Method: PREINCUBATION
# [12] = Test System: AMES SALMONELLA TYPHIMURIUM, Strain/Indicator: TA1535, Metabolic Activation: HAMSTER, LIVER, S-9, AROCLOR 1254 (10%), Method: PREINCUBATION
# [13] = Test System: AMES SALMONELLA TYPHIMURIUM, Strain/Indicator: TA102, Metabolic Activation: NONE, Method: PREINCUBATION
# [14] = Test System: AMES SALMONELLA TYPHIMURIUM, Strain/Indicator: TA98, Metabolic Activation: NONE, Method: STANDARD PLATE
# [15] = Test System: AMES SALMONELLA TYPHIMURIUM, Strain/Indicator: TA98, Metabolic Activation: RAT, LIVER, S-9, AROCLOR 1254, Method: STANDARD PLATE
# [16] = Test System: AMES SALMONELLA TYPHIMURIUM, Strain/Indicator: TA100, Metabolic Activation: NONE, Method: STANDARD PLATE
# [17] = Test System: AMES SALMONELLA TYPHIMURIUM, Strain/Indicator: TA100, Metabolic Activation: RAT, LIVER, S-9, AROCLOR 1254, Method: STANDARD PLATE
# [18] = Test System: AMES SALMONELLA TYPHIMURIUM, Strain/Indicator: TA1535, Metabolic Activation: NONE, Method: STANDARD PLATE
# [19] = Test System: AMES SALMONELLA TYPHIMURIUM, Strain/Indicator: TA1535, Metabolic Activation: RAT, LIVER, S-9, AROCLOR 1254, Method: STANDARD PLATE
# [20] = Test System: AMES SALMONELLA TYPHIMURIUM, Strain/Indicator: TA1537, Metabolic Activation: NONE, Method: STANDARD PLATE
# [21] = Test System: AMES SALMONELLA TYPHIMURIUM, Strain/Indicator: TA1537, Metabolic Activation: RAT, LIVER, S-9, AROCLOR 1254, Method: STANDARD PLATE
smiles,measurement,setting,value
C=Cc1ccccc1Cl,mutagenic call,[1],inactive; negative
same,mutagenic call,[2],inactive; negative
same,mutagenic call,[3],inactive; negative
same,mutagenic call,[4],inactive; negative
same,mutagenic call,[5],inactive; negative
same,mutagenic call,[6],inactive; negative
same,mutagenic call,[7],inactive; negative
same,mutagenic call,[8],inactive; negative
same,mutagenic call,[9],inactive; negative
same,mutagenic call,"Test System: AMES SALMONELLA TYPHIMURIUM, Strain/Indicator: TA1535, Metabolic Activation: HAMSTER, LIVER, S-9, AROCLOR 1254 (10 OR 30%), Method: PREINCUBATION",inactive; negative
same,mutagenic call,[10],inactive; negative
same,mutagenic call,[11],inactive; negative
O=C1OC(=O)c2c(Br)c(Br)c(Br)c(Br)c21,mutagenic call,"Test System: AMES SALMONELLA TYPHIMURIUM, Strain/Indicator: TA98, Metabolic Activation: HAMSTER, LIVER, S-9, AROCLOR 1254 (10%), Method: PREINCUBATION",inactive; negative
same,mutagenic call,[5],inactive; negative
same,mutagenic call,"Test System: AMES SALMONELLA TYPHIMURIUM, Strain/Indicator: TA98, Metabolic Activation: RAT, LIVER, S-9, AROCLOR 1254 (10%), Method: PREINCUBATION",inactive; negative
same,mutagenic call,"Test System: AMES SALMONELLA TYPHIMURIUM, Strain/Indicator: TA100, Metabolic Activation: HAMSTER, LIVER, S-9, AROCLOR 1254 (10%), Method: PREINCUBATION",inactive; negative
same,mutagenic call,[8],inactive; negative
same,mutagenic call,"Test System: AMES SALMONELLA TYPHIMURIUM, Strain/Indicator: TA100, Metabolic Activation: RAT, LIVER, S-9, AROCLOR 1254 (10%), Method: PREINCUBATION",inactive; negative
same,mutagenic call,[12],inactive; negative
same,mutagenic call,[10],inactive; negative
same,mutagenic call,"Test System: AMES SALMONELLA TYPHIMURIUM, Strain/Indicator: TA1535, Metabolic Activation: RAT, LIVER, S-9, AROCLOR 1254 (10%), Method: PREINCUBATION",inactive; negative
same,mutagenic call,"Test System: AMES SALMONELLA TYPHIMURIUM, Strain/Indicator: TA1537, Metabolic Activation: HAMSTER, LIVER, S-9, AROCLOR 1254 (10%), Method: PREINCUBATION",inactive; negative
same,mutagenic call,"Test System: AMES SALMONELLA TYPHIMURIUM, Strain/Indicator: TA1537, Metabolic Activation: NONE, Method: PREINCUBATION",inactive; negative
same,mutagenic call,"Test System: AMES SALMONELLA TYPHIMURIUM, Strain/Indicator: TA1537, Metabolic Activation: RAT, LIVER, S-9, AROCLOR 1254 (10%), Method: PREINCUBATION",inactive; negative
Nn1nnc2c([nH]c3ccccc32)c1=O,mutagenic call,[2],active; positive
same,mutagenic call,"Test System: AMES SALMONELLA TYPHIMURIUM, Strain/Indicator: TA97, Metabolic Activation: S-9 (10%), Method: PREINCUBATION",active; positive
same,mutagenic call,[5],active; positive
same,mutagenic call,"Test System: AMES SALMONELLA TYPHIMURIUM, Strain/Indicator: TA98, Metabolic Activation: S-9 (10%), Method: PREINCUBATION",active; positive
same,mutagenic call,[8],active; positive
same,mutagenic call,"Test System: AMES SALMONELLA TYPHIMURIUM, Strain/Indicator: TA100, Metabolic Activation: S-9 (10%), Method: PREINCUBATION",active; positive
same,mutagenic call,[13],active; positive
same,mutagenic call,"Test System: AMES SALMONELLA TYPHIMURIUM, Strain/Indicator: TA102, Metabolic Activation: S-9 (10%), Method: PREINCUBATION",active; positive
Cc1ccc(C=O)cc1,mutagenic call,[5],inactive; negative
same,mutagenic call,"Test System: AMES SALMONELLA TYPHIMURIUM, Strain/Indicator: TA98, Metabolic Activation: RAT, LIVER, S-9, AROCLOR 1254, Method: PREINCUBATION",inactive; negative
same,mutagenic call,[8],inactive; negative
same,mutagenic call,"Test System: AMES SALMONELLA TYPHIMURIUM, Strain/Indicator: TA100, Metabolic Activation: RAT, LIVER, S-9, AROCLOR 1254, Method: PREINCUBATION",inactive; negative
same,mutagenic call,[13],inactive; negative
same,mutagenic call,"Test System: AMES SALMONELLA TYPHIMURIUM, Strain/Indicator: TA102, Metabolic Activation: RAT, LIVER, S-9, AROCLOR 1254, Method: PREINCUBATION",inactive; negative
O=C1NC(=O)C(O)(O)C(=O)N1,mutagenic call,"End Point: IN VITRO CHROMOSOMAL ABERRATIONS, Test System: CHO CELLS, Metabolic Activation: NONE",inactive; negative
same,mutagenic call,"End Point: IN VITRO CHROMOSOMAL ABERRATIONS, Test System: CHO CELLS, Metabolic Activation: RAT, LIVER, S-9, AROCLOR 1254",inactive; negative
same,mutagenic call,[1],inactive; negative
same,mutagenic call,[2],inactive; negative
same,mutagenic call,[3],inactive; negative
same,mutagenic call,[4],inactive; negative
same,mutagenic call,[5],inactive; negative
same,mutagenic call,[6],inactive; negative
same,mutagenic call,[7],inactive; negative
same,mutagenic call,[8],inactive; negative
same,mutagenic call,[9],inactive; negative
same,mutagenic call,[12],inactive; negative
same,mutagenic call,"Test System: AMES SALMONELLA TYPHIMURIUM, Strain/Indicator: TA1535, Metabolic Activation: HAMSTER, LIVER, S-9, AROCLOR 1254 (30%), Method: PREINCUBATION",inactive; negative
same,mutagenic call,[10],inactive; negative
same,mutagenic call,[11],inactive; negative
O=[N+]([O-])O[C@H]1CO[C@H]2[C@@H]1OC[C@H]2O[N+](=O)[O-],mutagenic call,[14],inactive; negative
same,mutagenic call,[15],inactive; negative
same,mutagenic call,[16],inactive; negative
same,mutagenic call,[17],inactive; negative
same,mutagenic call,[18],inactive; negative
same,mutagenic call,[19],inactive; negative
same,mutagenic call,[20],inactive; negative
same,mutagenic call,[21],inactive; negative
CC(O)Cc1cc(N)cc([N+](=O)[O-])c1N (stereo unspecified),mutagenic call,[14],inactive; negative
same,mutagenic call,[15],inactive; negative
same,mutagenic call,[16],inactive; negative
same,mutagenic call,[17],inactive; negative
same,mutagenic call,[18],inactive; negative
same,mutagenic call,[19],inactive; negative
same,mutagenic call,[20],inactive; negative
same,mutagenic call,[21],inactive; negative
same,mutagenic call,"Test System: AMES SALMONELLA TYPHIMURIUM, Strain/Indicator: TA1538, Metabolic Activation: NONE, Method: STANDARD PLATE",inactive; negative
same,mutagenic call,"Test System: AMES SALMONELLA TYPHIMURIUM, Strain/Indicator: TA1538, Metabolic Activation: RAT, LIVER, S-9, AROCLOR 1254, Method: STANDARD PLATE",inactive; negative
